Measured values from patent US20260274832A1, “COMPOUNDS AND THEIR USE IN TREATING CANCER” (ASTRAZENECA AB, priority 2023, published 2026).

Key:
[1] = target: T1, AR (AR-full length) in LNCaP cells (Homo sapiens, UniProt P10275, T878A); assay: LNCaP Androgen Receptor Imaging Assay (immunofluorescence of endogenous nuclear AR); type: cell-based; conditions: 24 h incubation; for DC50: concentration giving 50% of maximum degradation of AR per curve fit, single experiment or average of two or more; for Dmax: LNCaP, maximum degradation observed, normalized as % of positive control (prior art AR PROTAC at 3 μM)
T1 construct: the prostate cancer cell line LNCaP (expressing AR-full length); endogenous in cells; host or cells: LNCaP
Outline: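 LNCaP cells (12,000/well) received a 12-point compound dose series (0.3% DMSO) for 24 h at 37° C., then were PFA-fixed and stained for AR (AR441) and nuclei (DRAQ5). Nuclear AR was quantified by imaging, normalized to a 3 μM AR PROTAC control; DC50 and Dmax came from Hill/bell curve fits.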

[2] = target: T2, AR (L702H) in LNCaP cells (Homo sapiens, UniProt P10275, L702H/T878A); assay: LNCaP Androgen Receptor L702H Imaging Assay (LNCaP cells engineered by CRISPR/Cas9); type: cell-based; conditions: LNCaP cells with AR L702H mutation, 24 h incubation; for DC50: concentration giving 50% of maximum degradation of AR (L702H) per curve fit; for Dmax: LNCaP
T2 construct: engineered to introduce the mutation L702H into the AR gene using CRISPR/Cas9; endogenous in cells; host or cells: LNCaP cells edited by CRISPR/Cas9 at the AR gene
Outline: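 CRISPR-engineered LNCaP cells carrying AR L702H were treated 24 h at 37 °C with a 12-point compound dose response (0.3% DMSO), then fixed and immunostained for AR with DRAQ5 nuclear counterstain. Nuclear AR was quantified by imaging, normalized to positive control; DC50 and Dmax came from Hill or bell-shaped fits.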

[3] = maximum degradation observed, normalized as % of positive control

T1 sequence (P10275 whole entry T878A): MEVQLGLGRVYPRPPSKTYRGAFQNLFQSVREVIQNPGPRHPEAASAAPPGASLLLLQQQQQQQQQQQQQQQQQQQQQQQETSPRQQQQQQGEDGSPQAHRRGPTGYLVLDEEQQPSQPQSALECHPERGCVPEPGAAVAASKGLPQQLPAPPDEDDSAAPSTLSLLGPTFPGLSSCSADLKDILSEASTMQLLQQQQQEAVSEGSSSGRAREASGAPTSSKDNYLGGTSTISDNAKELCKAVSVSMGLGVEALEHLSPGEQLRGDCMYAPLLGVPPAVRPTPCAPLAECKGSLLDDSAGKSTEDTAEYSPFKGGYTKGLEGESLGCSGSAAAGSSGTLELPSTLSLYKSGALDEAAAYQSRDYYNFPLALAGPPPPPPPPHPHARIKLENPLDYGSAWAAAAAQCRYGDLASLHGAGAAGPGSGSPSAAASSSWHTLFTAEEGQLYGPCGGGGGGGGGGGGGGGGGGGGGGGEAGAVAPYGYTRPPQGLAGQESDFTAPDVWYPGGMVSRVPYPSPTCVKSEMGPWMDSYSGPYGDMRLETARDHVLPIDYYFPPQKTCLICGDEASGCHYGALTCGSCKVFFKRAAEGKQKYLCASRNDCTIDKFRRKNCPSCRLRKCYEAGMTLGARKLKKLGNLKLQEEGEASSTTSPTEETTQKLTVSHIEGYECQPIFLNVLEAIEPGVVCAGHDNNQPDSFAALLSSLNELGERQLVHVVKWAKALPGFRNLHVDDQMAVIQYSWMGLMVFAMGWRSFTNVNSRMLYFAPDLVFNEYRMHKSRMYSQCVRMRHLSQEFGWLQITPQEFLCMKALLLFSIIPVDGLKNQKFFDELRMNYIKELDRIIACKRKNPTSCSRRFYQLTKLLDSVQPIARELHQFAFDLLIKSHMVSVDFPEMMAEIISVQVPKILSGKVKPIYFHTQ
T1 sequence (Q96SW2 whole entry partner): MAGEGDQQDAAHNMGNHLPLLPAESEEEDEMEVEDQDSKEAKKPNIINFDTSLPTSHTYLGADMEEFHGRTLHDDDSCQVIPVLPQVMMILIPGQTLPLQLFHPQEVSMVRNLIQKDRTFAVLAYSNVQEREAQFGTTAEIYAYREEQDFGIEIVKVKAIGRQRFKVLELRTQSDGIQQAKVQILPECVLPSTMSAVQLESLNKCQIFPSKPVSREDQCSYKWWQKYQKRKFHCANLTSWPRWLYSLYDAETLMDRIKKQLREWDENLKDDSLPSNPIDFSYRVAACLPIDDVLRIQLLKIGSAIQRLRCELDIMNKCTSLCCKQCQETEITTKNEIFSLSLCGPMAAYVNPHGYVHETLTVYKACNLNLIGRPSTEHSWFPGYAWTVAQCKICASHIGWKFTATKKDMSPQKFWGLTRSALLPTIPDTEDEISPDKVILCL
T2 sequence (P10275 whole entry L702H/T878A): as the sequence (P10275 whole entry T878A) above, with L702H counted along it
T2 sequence (Q96SW2 whole entry partner): as the sequence (Q96SW2 whole entry partner) above

| Structure (SMILES) | DC50 [1] [nM] | Dmax [1] [%] | DC50 [2] [nM] | Dmax [2, 3] [%] | LNCaP AR (L702H) Degradation Dmax [2, 3] [%] |
| --- | --- | --- | --- | --- | --- |
| Cn1c(C2CCN(CC3CCN(c4ccc(C5CCN(c6ccc(Cl)c7c(C#N)c[nH]c67)CC5)cc4)CC3)CC2)cc2ccc(N3CCC(=O)NC3=O)cc21 [Example 84, 4-Chloro-7-(4-{4-[4-({4-[6-(2,4-dioxo-1,3-diazinan-1-yl)-1-methyl-1H-indol-2-yl]piperidin-1-yl}methyl)piperidin-1-yl]phenyl}piperidin-1-yl)-1H-indole-3-carbonitrile] | 22 | 99 | 12 | 103 |  |
| N#Cc1c[nH]c2c(N3CCCC(c4ccc(N5CCC(CN6CCC(n7ccc8c(N9CCC(=O)NC9=O)cccc87)CC6)CC5)nc4)C3)ccc(Cl)c12 (single isomer, unassigned) [Example 115, 4-Chloro-7-[(3S*)-3-{6-[4-({4-[4-(2,4-dioxo-1,3-diazinan-1-yl)-1H-indol-1-yl]piperidin-1-yl}methyl)piperidin-1-yl]pyridin-3-yl}piperidin-1-yl]-1H-indole-3-carbonitrile] | 14 | 99 | 13 | 102 |  |
| Cc1ccc(N2CCC(c3ccc(OCCCCN4CCN(c5ccc6c(c5)CN(C5CCC(=O)NC5=O)C6=O)CC4)cc3)CC2)c2[nH]cc(C#N)c12 (stereo not shown) [Example 28, 7-{4-[4-(4-{4-[2-(2,6-dioxopiperidin-3-yl)-1-oxo-2,3-dihydro-1H-isoindol-5-yl]piperazin-1-yl}butoxy)phenyl]piperidin-1-yl}-4-methyl-1H-indole-3-carbonitrile] | 5 | 96 | 23 | 83 |  |
| N#Cc1c[nH]c2c(N3CCC(c4ccc(N5CCN(CC6CCN(c7ccc8c(c7)CN(C7CCC(=O)NC7=O)C8=O)CC6)CC5)cc4)CC3)ccc(F)c12 (stereo not shown) [Example 22] | 14 | 80 | 23 | 81 |  |
| COc1cc(N2CCN(CCCCOc3ccc(C4CCN(c5ccc(C)c6c(C#N)c[nH]c56)CC4)cc3)CC2)cc2c1C(=O)N(C1CCC(=O)NC1=O)C2 (stereo not shown) [Example 27, 7-{4-[4-(4-{4-[2-(2,6-Dioxopiperidin-3-yl)-7-methoxy-1-oxo-2,3-dihydro-1H-isoindol-5-yl]piperazin-1-yl}butoxy)phenyl]piperidin-1-yl}-4-methyl-1H-indole-3-carbonitrile] | 14 | 99 | 27 | 75 |  |
| Cc1ccc(C2CCCN(c3cccc(OCCCCN4CCN(c5ccc6c(c5)CN(C5CCC(=O)NC5=O)C6=O)CC4)c3)C2)c2[nH]cc(C#N)c12 (single isomer, unassigned) [Example 81, 7-{(3S*)-1-[3-(4-{4-[2-(2,6-dioxopiperidin-3-yl)-1-oxo-2,3-dihydro-1H-isoindol-5-yl]piperazin-1-yl}butoxy)phenyl]piperidin-3-yl}-4-methyl-1H-indole-3-carbonitrile] | > 3000 |  | 3100 |  | 100 |
| Cc1ccc(N2CCC(c3ccc(N4CCC(CN5CCC(n6ccc7c(N8CCC(=O)NC8=O)cccc76)CC5)CC4)cc3F)CC2)c2[nH]cc(C#N)c12 [Example 42, 7-(4-{4-[4-({4-[4-(2,4-Dioxo-1,3-diazinan-1-yl)-1H-indol-1-yl]piperidin-1-yl}methyl)piperidin-1-yl]-2-fluorophenyl}piperidin-1-yl)-4-methyl-1H-indole-3-carbonitrile] | 29 | 101 | 62 | 107 |  |
| N#Cc1c[nH]c2c(N3CCC[C@@H](c4ccc(N5CCC(CN6CCN(c7cc8c(cc7F)C(=O)N(C7CCC(=O)NC7=O)C8=O)CC6)CC5)cc4)C3)ccc(Cl)c12 (stereo partly drawn) [Example 53, 4-Chloro-7-[(3S)-3-{4-[4-({4-[2-(2,6-dioxopiperidin-3-yl)-6-fluoro-1,3-dioxo-2,3-dihydro-1H-isoindol-5-yl]piperazin-1-yl}methyl)piperidin-1-yl]phenyl}piperidin-1-yl]-1H-indole-3-carbonitrile] | 30 | 99 | 78 | 103 |  |
| N#Cc1c[nH]c2c(N3CCC(c4ccc(C(=O)N5CCC(CN6CCN(c7cc8c(cc7F)C(=O)N(C7CCC(=O)NC7=O)C8=O)CC6)CC5)cc4)CC3)ccc(Cl)c12 (stereo not shown) [Example 100, 4-Chloro-7-(4-{4-[4-({4-[2-(2,6-dioxopiperidin-3-yl)-6-fluoro-1,3-dioxo-2,3-dihydro-1H-isoindol-5-yl]piperazin-1-yl}methyl)piperidine-1-carbonyl]phenyl}piperidin-1-yl)-1H-indole-3-carbonitrile] | 29 | 101 | 449 | 89 |  |

Second part, led by results:

| DC50 [1] [nM] | Dmax [1] [%] | DC50 [2] [nM] | Dmax [2, 3] [%] | Structure (SMILES) | LNCaP AR (L702H) Degradation Dmax [2, 3] [%] |
| --- | --- | --- | --- | --- | --- |
| 3 | 97 | 4 | 96 | Cn1c(=O)n(C2CCC(=O)NC2=O)c2cccc(N3CCN(CC4CCN(c5ccc(C(=O)NC6CCN(c7ccc(Cl)c8c(C#N)c[nH]c78)CC6)c(F)c5)CC4)CC3)c21 (stereo not shown) [Example 157, N-[1-(4-Chloro-3-cyano-1H-indol-7-yl)piperidin-4-yl]-4-[4-({4-[1-(2,6-dioxopiperidin-3-yl)-3-methyl-2-oxo-2,3-dihydro-1H-benzimidazol-4-yl]piperazin-1-yl}methyl)piperidin-1-yl]-2-fluorobenzamide] |  |
| 4 | 98 | 14 | 87 | N#Cc1c[nH]c2c(N3CCC(c4cnc(N5CCC(CN6CCC(n7ccc8c(N9CCC(=O)NC9=O)cccc87)CC6)CC5)cn4)CC3)ccc(Cl)c12 [Example 67] |  |
| 5 | 104 | 10 | 105 | Cn1c(C2CCN(CC3CCN(c4ccc(C(=O)NC5CCN(c6ccc(Cl)c7c(C#N)c[nH]c67)CC5)c(F)c4)CC3)CC2)cc2cc(F)c(N3CCC(=O)NC3=O)cc21 [Example 156, N-[1-(4-Chloro-3-cyano-1H-indol-7-yl)piperidin-4-yl]-4-[4-({4-[6-(2,4-dioxo-1,3-diazinan-1-yl)-5-fluoro-1-methyl-1H-indol-2-yl]piperidin-1-yl}methyl)piperidin-1-yl]-2-fluorobenzamide] |  |
| 7 | 99 | 80 | 71 | N#Cc1c[nH]c2c(N3CCC(c4ccc(N5CCC(CN6CCC(n7ccc8c(N9CCC(=O)NC9=O)cccc87)CC6)CC5)cn4)CC3)ccc(Cl)c12 [Example 62, 4-Chloro-7-(4-{5-[4-({4-[4-(2,4-dioxo-1,3-diazinan-1-yl)-1H-indol-1-yl]piperidin-1-yl}methyl)piperidin-1-yl]pyridin-2-yl}piperidin-1-yl)-1H-indole-3-carbonitrile] |  |
| 6 | 99 | 14 | 103 | N#Cc1n[nH]c2c(N3CCOC(c4ccc(N5CCC(CN6CCC(n7ccc8c(N9CCC(=O)NC9=O)cccc87)CC6)CC5)cc4)C3)ccc(Cl)c12 (single isomer, unassigned) [Example 119, 4-Chloro-7-[(2S*)-2-{4-[4-({4-[4-(2,4-dioxo-1,3-diazinan-1-yl)-1H-indol-1-yl]piperidin-1-yl}methyl)piperidin-1-yl]phenyl}morpholin-4-yl]-1H-indazole-3-carbonitrile] |  |
| 6 | 94 | 16 | 63 | N#Cc1c[nH]c2c(N3CCC(c4ccc(N5CCC(CN6CCC(n7ccc8c(N9CCC(=O)NC9=O)cccc87)CC6)CC5)nn4)CC3)ccc(Cl)c12 [Example 63, 4-Chloro-7-(4-{6-[4-({4-[4-(2,4-dioxo-1,3-diazinan-1-yl)-1H-indol-1-yl]piperidin-1-yl}methyl)piperidin-1-yl]pyridazin-3-yl}piperidin-1-yl)-1H-indole-3-carbonitrile] |  |
| 1 | 104 | 3 | 102 | N#Cc1c[nH]c2c(N3CCC(NC(=O)c4cnc(N5CCC(CN6CCC(n7ccc8c(N9CCC(=O)NC9=O)cccc87)CC6)CC5)cn4)CC3)ccc(Cl)c12 [Example 176, N-[1-(4-Chloro-3-cyano-1H-indol-7-yl)piperidin-4-yl]-5-[4-({4-[4-(2,4-dioxo-1,3-diazinan-1-yl)-1H-indol-1-yl]piperidin-1-yl}methyl)piperidin-1-yl]pyrazine-2-carb oxamide] |  |
| 6 | 98 | 5 | 115 | Cn1c(C2CCN(CC3CCN(c4ccc([C@H]5CCCN(c6ccc(Cl)c7c(C#N)n[nH]c67)C5)cc4)CC3)CC2)cc2ccc(N3CCC(=O)NC3=O)cc21 [Example 132, 4-Chloro-7-[(3R)-3-{4-[4-({4-[6-(2,4-dioxo-1,3-diazinan-1-yl)-1-methyl-1H-indol-2-yl]piperidin-1-yl}methyl)piperidin-1-yl]phenyl}piperidin-1-yl]-1H-indazole-3-carbonitrile] |  |
